The values below come from PMC7619001, “Structural Basis of Bifunctional CTP/dCTP Synthase” (Journal of molecular biology, 2024).

The target in assay [1] is T1, CTP synthase (CTPS) (Drosophila melanogaster, UniProt Q9VUL1).
T1 construct: full-length, C-terminal 6xHis-tag
T1 sequence (Q9VUL1 1-627): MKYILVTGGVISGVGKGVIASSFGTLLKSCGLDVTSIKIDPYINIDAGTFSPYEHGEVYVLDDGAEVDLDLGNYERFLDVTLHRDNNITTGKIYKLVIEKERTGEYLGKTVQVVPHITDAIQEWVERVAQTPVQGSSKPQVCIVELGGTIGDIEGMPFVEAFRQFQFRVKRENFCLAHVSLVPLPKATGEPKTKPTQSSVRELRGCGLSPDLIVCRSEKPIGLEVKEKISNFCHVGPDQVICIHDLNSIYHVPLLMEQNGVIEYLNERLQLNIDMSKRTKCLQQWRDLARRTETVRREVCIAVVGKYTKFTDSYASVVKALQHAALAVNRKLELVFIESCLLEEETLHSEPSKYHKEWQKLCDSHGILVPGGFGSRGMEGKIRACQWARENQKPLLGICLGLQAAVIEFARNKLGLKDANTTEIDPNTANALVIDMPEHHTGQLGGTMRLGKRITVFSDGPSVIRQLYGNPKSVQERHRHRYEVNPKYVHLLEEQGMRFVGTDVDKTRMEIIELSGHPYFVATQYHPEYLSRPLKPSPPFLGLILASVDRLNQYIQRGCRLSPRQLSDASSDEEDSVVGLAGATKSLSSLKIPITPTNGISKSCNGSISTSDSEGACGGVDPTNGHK
Put plainly: cryo-EM structure; activation kinetics (KA = dissociation constant of the enzyme-regulator complex). Format: biochemical. An excerpt:
cryo-EM structure; activation kinetics (KA = dissociation constant of the enzyme-regulator complex) on CTP synthase (CTPS) | we observed a clear electron density of dGTP

Assay [2] addresses T1, CTP synthase (CTPS). Put plainly: cryo-EM structure ([…] Å). In kind it is binding.
In assay [3] the target is T1, CTP synthase (CTPS). Put plainly: enzyme kinetics at […] nm, Hill fit (KA […]). Format: biochemical.
The target in assay [4] is T1, CTP synthase (CTPS). Put plainly: enzyme kinetics at […] nm, Hill fit (KA […]). In kind it is biochemical. The source holds these as a separate data set.
Assay [5] has as its target T1, CTP synthase (CTPS). Put plainly: cryo-EM structure ([…] Å), reaction intermediate. Format: binding.
Assay [6] deals with T1, CTP synthase (CTPS). Put plainly: activation kinetics (KA = dissociation constant of the E·GTP complex). In kind it is biochemical.
In assay [7] the target is T1, CTP synthase (CTPS). Put plainly: enzyme kinetics at […] nm, Hill fit (KA […]). Format: biochemical. This is another data set of the same source.
The target in assay [8] is T1, CTP synthase (CTPS). Put plainly: enzyme activity abolished at […]; filament formation by negative-stain EM. Format: biochemical.
In assay [9] the target is T1, CTP synthase (CTPS). Put plainly: enzyme kinetics at […] nm, Hill fit (KA […]). Format: biochemical. The source holds these as a separate data set.

As a reminder, the Kd is the constant that tells how readily two partners part at equilibrium. On CTP synthase (CTPS) [1], `Nc1nc2c(ncn2[C@H]2C[C@H](O)[C@@H](COP(=O)(O)OP(=O)(O)OP(=O)(O)O)O2)c(=O)[nH]1` [dGTP] returned a Kd of 523 ± 312 µM. As for `Nc1ncnc2c1ncn2[C@H]1C[C@H](O)[C@@H](COP(=O)(O)OP(=O)(O)O)O1` [dADP], on CTP synthase (CTPS) [2], the “cryo-EM structure (2.7 Å)” value is reported as “dATP has been converted to dADP by CTPS”.

On to `Nc1ncnc2c1ncn2[C@@H]1O[C@H](COP(=O)(O)OP(=O)(O)OP(=O)(O)O)[C@@H](O)[C@H]1O` [ATP], for which, on CTP synthase (CTPS) [3], the Kd was found to be 60 µM. For the compound `Nc1ncnc2c1ncn2[C@H]1C[C@H](O)[C@@H](COP(=O)(O)OP(=O)(O)OP(=O)(O)O)O1` [dATP], the Kd at CTP synthase (CTPS) [4] came to 160 ± 80 µM. For the compound `O=c1nc(OP(=O)(O)O)ccn1[C@H]1C[C@H](O)[C@@H](COP(=O)(O)OP(=O)(O)OP(=O)(O)O)O1` [4Pi-dUTP], at CTP synthase (CTPS) [5], the “cryo-EM structure (2.7 Å), reaction intermediate” value was “our electron density map shows that dUTP has been catalyzed by CTPS to 4Pi-dUTP and stabilized through various interactions”. `Nc1nc2c(ncn2[C@@H]2O[C@H](COP(=O)(O)OP(=O)(O)OP(=O)(O)O)[C@@H](O)[C@H]2O)c(=O)[nH]1` [GTP] displayed a Kd at CTP synthase (CTPS) [6] of 51.2 µM.

Regarding `O=c1ccn([C@H]2C[C@H](O)[C@@H](COP(=O)(O)OP(=O)(O)OP(=O)(O)O)O2)c(=O)[nH]1` [dUTP], the Kd at CTP synthase (CTPS) [7] was 280 ± 70 µM. Take `Nc1ccn([C@H]2C[C@H](O)[C@@H](COP(=O)(O)OP(=O)(O)OP(=O)(O)O)O2)c(=O)n1` [dCTP]: the “enzyme activity abolished at 1 mM; filament formation by negative-stain EM” value on CTP synthase (CTPS) [8] was “This indicates that both CTP and dCTP have strong inhibition effects on CTPS activity”. Take `[N-]=[N+]=CC(=O)CC[C@H](N)C(=O)O` [DON, 6-diazo-L-noreleucine]: the “cryo-EM structure (2.7 Å)” value at CTP synthase (CTPS) [2] is given as “The electron density of the covalent inhibitor DON was observed in the binding pocket of the GAT domain”. The compound `O=c1ccn([C@@H]2O[C@H](COP(=O)(O)OP(=O)(O)OP(=O)(O)O)[C@@H](O)[C@H]2O)c(=O)[nH]1` [UTP] yielded a Kd at CTP synthase (CTPS) [9] of 50 ± 40 µM.
